Laboratory results taken from ChEMBL document CHEMBL6178021, “Optimization of Tambjamines Active against Multiple Stages of Malaria Parasites” (J Med Chem, 2025).
≈ marks a conversion by molar mass, not a printed value. Calls of active or inactive are those of the source. No cut-off for these calls is given here.

How the values were obtained:
Plasmodium falciparum [1] = assay: Antiplasmodial activity against asexual blood-stage Plasmodium falciparum Tm90-C2B using 2% haematocrit and 0.2% parasitemia assessed as reduction in fluorescence measured after 72 hrs by Malaria SYBR Green I-based Fluorescence (MSF) assay; type: functional, organism-based
HepG2 = assay: (§1) Cytotoxicity against human HepG2 cells assessed as cell viability measured after 48 hrs by MTT assay; type: toxicity, cell-based; details: hepg2
[2] = Metabolic stability in human liver microsomes assessed as half life measured up to 60 mins by LC/MS analysis; type: ADME, Microsome
[3] = Metabolic stability in mouse liver microsomes assessed as half life measured up to 60 mins by LC/MS analysis; type: ADME, Microsome
Plasmodium yoelii [4] = assay: Antimalarial activity against erythrocytic Plasmodium yoelii MRA-428 infected in CF1 mouse assessed as reduction in parasitemia at 10 mg/kg, po once daily for 4 days measured on day 5; type: functional; set-up: scale not given: the % may be the effect or the level left; details: time 4 day
Plasmodium yoelii [5] = assay: Antimalarial activity against erythrocytic Plasmodium yoelii MRA-428 infected in CF1 mouse assessed as reduction in parasitemia at 25 mg/kg, po once daily for 4 days measured on day 5; type: functional; set-up: scale not given: the % may be the effect or the level left; details: time 4 day
Plasmodium yoelii [6] = assay: Antimalarial activity against erythrocytic Plasmodium yoelii MRA-428 infected in CF1 mouse assessed as reduction in parasitemia at 50 mg/kg, po once daily for 4 days measured on day 5; type: functional; set-up: scale not given: the % may be the effect or the level left; details: time 4 day
Plasmodium yoelii [7] = assay: Antimalarial activity against erythrocytic Plasmodium yoelii MRA-428 infected in CF1 mouse assessed as cured mouse at 10 mg/kg, po once daily for 4 days measured on day 28 day; type: functional, organism-based; details: time 4.0 day
Plasmodium yoelii [8] = assay: Antimalarial activity against erythrocytic Plasmodium yoelii MRA-428 infected in CF1 mouse assessed as cured mouse at 25 mg/kg, po once daily for 4 days measured on day 28 day; type: functional, organism-based; details: time 4.0 day
Plasmodium yoelii [9] = assay: Antimalarial activity against erythrocytic Plasmodium yoelii MRA-428 infected in CF1 mouse assessed as cured mouse at 50 mg/kg, po once daily for 4 days measured on day 28 day; type: functional, organism-based; details: time 4.0 day
[10] = Solubility of the compound in potassium phosphate buffer at pH 7.4 by UV-vis spectroscopy; details: buffer
MDR1 (human) [11] = assay: Apparent permeability across apical to basolateral side in MDCK transfected with human MDR1 cells incubated for 1 hr by LC-MS analysis; details: dog, MDCK-MDR1
MDR1 (human) [12] = assay: Apparent permeability across basolateral to apical side in MDCK transfected with human MDR1 cells incubated for 1 hr by LC-MS analysis; details: dog, MDCK-MDR1
MDR1 (human) [13] = assay: Efflux ratio, ratio of apparent permeability across apical to basolateral side over basolateral to apical side in MDCK transfected with human MDR1 cells incubated for 1 hr by LC-MS analysis; details: dog
in vitro [14] = details: human
Description: Selectivity index, ratio of IC50 for cytotoxicity against human HepG2 cells to IC50 for antiplasmodial activity against asexual blood-stage Plasmodium falciparum D6

in vitro [15] = details: human, liver microsomes
in vitro [16] = details: mouse, liver microsomes
Plasmodium falciparum [17] = assay: microbe, parasite or virus in culture; details: D6, 72 h
Description: Antiplasmodial activity against asexual blood-stage Plasmodium falciparum D6 using 2% haematocrit and 0.2% parasitemia assessed as reduction in fluorescence measured after 72 hrs by Malaria SYBR Green I-based Fluorescence (MSF) assay

Plasmodium falciparum [18] = assay: microbe, parasite or virus in culture; details: Dd2, 72 h
Description: Antiplasmodial activity against asexual blood-stage Plasmodium falciparum Dd2 using 2% haematocrit and 0.2% parasitemia assessed as reduction in fluorescence measured after 72 hrs by Malaria SYBR Green I-based Fluorescence (MSF) assay

Plasmodium berghei [19] = assay: Anti-malarial activity against Luciferase-expressing Plasmodium berghei sporozoites inoculated in po dosed Albino C57BL/6 mouse malaria model assessed as elimination of parasites in liver by measuring bioluminescence signal measured after 48 hrs; type: functional, organism-based
[20] = as §1; type: toxicity, cell-based; details: human, HepG2 cells
Plasmodium yoelii [21] = assay: Antimalarial activity against erythrocytic Plasmodium yoelii MRA-428 infected in CF1 mouse assessed as reduction in parasitemia at 80 mg/kg, po once daily for 4 days measured on day 5; type: functional; set-up: scale not given: the % may be the effect or the level left; details: time 4 day
Plasmodium yoelii [22] = assay: Antimalarial activity against erythrocytic Plasmodium yoelii MRA-428 infected in CF1 mouse assessed as cured mouse at 80 mg/kg, po once daily for 4 days measured on day 28 day; type: functional, organism-based; details: time 4.0 day
Plasmodium berghei [23] = assay: Anti-malarial activity against Luciferase-expressing Plasmodium berghei sporozoites inoculated in po dosed Albino C57BL/6 mouse malaria model assessed as elimination of parasites in blood by measuring bioluminescence signal measured after 72 hrs; type: functional, organism-based
Plasmodium falciparum [24] = assay: Anti-plasmodial activity against Plasmodium falciparum 3D7 infected in erythrocytes assessed as Lag phase (time to observe the maximal killing effect of the drug) at 0.27 uM; type: functional
Plasmodium falciparum [25] = assay: Anti-plasmodial activity against Plasmodium falciparum 3D7 infected in erythrocytes assessed as parasite reduction ratio at 0.27 uM measured 22 to 28 days; type: functional; details: time 22-28 day
Plasmodium falciparum [26] = assay: Anti-plasmodial activity against Plasmodium falciparum 3D7 infected in erythrocytes assessed as parasite clearance time at 0.27 uM measured 22 to 28 days relative to initial population; type: functional; details: time 22-28 day

Compound | IC50 (Plasmodium falciparum [1]) [nM] | half-life [2] [min] | half-life [3] [min] | Activity (Plasmodium yoelii [4]) [%] | Activity (Plasmodium yoelii [5]) [%] | Activity (Plasmodium yoelii [6]) [%] | Activity (Plasmodium yoelii [7]) | Activity (Plasmodium yoelii [8]) | Activity (Plasmodium yoelii [9]) | selectivity ratio (in vitro [14]) | IC50 (Plasmodium falciparum [17]) [nM] | IC50 (Plasmodium falciparum [18]) [nM] | Activity (Plasmodium berghei [19]) | IC50 at 48 h [20] [nM] | Activity (Plasmodium yoelii [21]) [%] | Activity (Plasmodium yoelii [22]) | Activity (Plasmodium berghei [23]) | other results
CCC1=C(CC)/C(=C/NC23C[C@H]4C[C@@H](C2)C[C@@H](C3)C4)N=C1c1ccc(C)[nH]1 | 1.01 | 34.9 | > 60 | 100 | 100 | 100 | Not active; None Of The Mouse Cured Out Of Four Tested | Not active; None Of The Mouse Cured Out Of Four Tested | Active; Two Mouse Cured Out Of Four | 2620 | 0.934 | 0.823 | – | – | – | – | – | IC50 (HepG2): 2450 nM; solubility [10]: 10.9 µM (≈ 3.96 µg/mL); Papp A→B at 1 h (MDR1 (human) [11]): 0.027 ×10⁻⁶ cm/s; Papp B→A at 1 h (MDR1 (human) [12]): 0.006 ×10⁻⁶ cm/s; efflux ratio at 1 h (MDR1 (human) [13]): 0.24; microsomal CLint at 1 h (in vitro [15]): 39.7 µL/min/mg; microsomal CLint at 1 h (in vitro [16]): 13.8 µL/min/mg
CCC1=C(C)/C(=C/NC2CCCCCC2)N=C1c1ccc[nH]1 | 37.6 | 17.7 | 10.1 | 100 | 100 | 100 | Not active; None Of The Mouse Cured Out Of Four Tested | Active; Four Mouse Cured Out Of Four | Active; Four Mouse Cured Out Of Four | 309 | 62.2 | 55.5 | inactive | 19200 | 100 | Active; Two Mouse Cured Out Of Four | inactive | –
CCc1nc(N)nc(N)c1-c1ccc(Cl)cc1 [PYRIMETHAMINE] | – | – | – | – | – | – | – | – | – | – | – | – | – | – | – | – | – | Time (Plasmodium falciparum [24]): 24 h; log(activity) (Plasmodium falciparum [25]): 3.49; T99.9% (Plasmodium falciparum [26]): 54 h
CCC1=C(CC)/C(=C/NC23CC4CC(CC(C4)C2)C3)N=C1c1ccc[nH]1 | – | > 60 | 16 | 82.5 | 100 | 100 | – | Active; Three Mouse Cured Out Of Four | Active; Three Mouse Cured Out Of Four | 2440 | 1.6 | 1.01 | Dose-dependent-effect | 3900 | 100 | Active; Four Mouse Cured Out Of Four | Dose-dependent-effect | –
